Results taken from ChEMBL document CHEMBL1149308, “4-{(2R)-[3-Aminopropionylamido]-3-(2,4-dichlorophenyl)propionyl}-1-{2-[(2-thienyl)ethylaminomethyl]phenyl}piperazine as a potent and selective melanocortin-4 receptor antagonist--design, synthesis, and characterization” (J Med Chem, 2004).
The source made the active and inactive calls. The calls are words filed in the database; no cut-off is given here.

What was measured:
Melanocortin receptor 4 [1] = target: T1, Melanocortin receptor 4 (Homo sapiens, UniProt P32245); assay: biochemical
Description: (§1) Displacement of [125]NDP-MSH from human MC4 receptor expressed in HEK293 cells

[2] = target: T2, Melanocyte-stimulating hormone receptor (Homo sapiens, UniProt Q01726); assay: Inhibition of human MC1 receptor expressed in HEK293 cells at 10 uM; assay type: cell-based
Target sequence in this assay (Q01726 whole entry, looked up): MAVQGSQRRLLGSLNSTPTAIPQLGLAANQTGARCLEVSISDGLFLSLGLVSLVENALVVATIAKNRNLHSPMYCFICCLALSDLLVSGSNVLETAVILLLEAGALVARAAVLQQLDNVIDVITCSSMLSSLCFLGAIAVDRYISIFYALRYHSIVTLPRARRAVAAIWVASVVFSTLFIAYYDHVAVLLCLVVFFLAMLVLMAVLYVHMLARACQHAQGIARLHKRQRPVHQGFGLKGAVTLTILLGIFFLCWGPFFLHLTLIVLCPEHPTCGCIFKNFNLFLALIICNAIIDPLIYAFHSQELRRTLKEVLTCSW

Melanocortin receptor 3 [3] = target: T3, Melanocortin receptor 3 (Homo sapiens, UniProt P41968); assay: Inhibition of human MC3 receptor expressed in HEK293 cells at 10 uM; assay type: cell-based
Melanocortin receptor 4 [4] = target: T1, Melanocortin receptor 4
Description: Agonist activity at human MC4 receptor expressed in HEK293 cells assessed as stimulation of cAMP production

Melanocortin receptor 4 [5] = target: T1, Melanocortin receptor 4; settings: HEK293
Description: as §1

Melanocortin receptor 3 [6] = target: T3, Melanocortin receptor 3; assay type: cell-based, HEK293
Melanocortin receptor 4 [7] = target: T1, Melanocortin receptor 4; assay: Antagonist activity at human MC4 receptor expressed in HEK293 cells assessed as inhibition of alpha-MSH-stimulated cAMP production; assay type: functional, cell-based; settings: read-out: pA2 (converted)
[8] = target: T2, Melanocyte-stimulating hormone receptor; assay type: cell-based, HEK293
Target sequence in this assay (Q01726 whole entry): as the sequence (Q01726 whole entry, looked up) above

Melanocortin receptor 5 = Melanocortin receptor 5 (Homo sapiens, UniProt P33032); assay type: cell-based, HEK293
[9] = Distribution coefficient, log D at pH 7.4; assay type: physicochemical; settings: octanol/water
[10] = Clearance in rat at 10 mg/kg, iv; assay type: ADME, organism-based; design: dose 10 mg/kg, route intravenous; settings: in vivo
[11] = Volume of distribution in rat at 10 mg/kg, iv; assay type: ADME, organism-based; design: dose 10 mg/kg, route intravenous; settings: in vivo, read-out: Vdss
[12] = Half life in rat at 10 mg/kg, iv; assay type: ADME, organism-based; design: dose 10 mg/kg, route intravenous; settings: in vivo
[13] = Concentration in rat brain at 2 mg/kg, iv after […]; assay type: ADME, organism-based; design: dose 2 mg/kg, route intravenous; settings: read-out: Drug uptake
[14] = Plasma concentration in rat at 2 mg/kg, iv after […]; assay type: ADME, organism-based; design: dose 2 mg/kg, route intravenous
[15] = Ratio of drug level in brain to plasma of rat at 2 mg/kg, iv after […]; assay type: ADME, organism-based; design: dose 2 mg/kg, route intravenous
[16] = Tmax in rat at 10 mg/kg, po; assay type: ADME, organism-based; design: dose 10 mg/kg, route oral; settings: in vivo
[17] = Cmax in rat at 10 mg/kg, po; assay type: ADME, organism-based; design: dose 10 mg/kg, route oral; settings: in vivo
[18] = AUC in rat at 10 mg/kg, po; assay type: ADME, organism-based; design: dose 10 mg/kg, route oral; settings: plasma
[19] = Intrinsic clearance in human liver microsomes; assay type: ADME, Microsome
[20] = Oral bioavailability in rat at 10 mg/kg, po; assay type: ADME, organism-based; settings: in vivo
Melanocortin receptor 4 [21] = target: T1, Melanocortin receptor 4; remark: listed apart in the source
Description: as §1

T1 sequence (P32245 whole entry): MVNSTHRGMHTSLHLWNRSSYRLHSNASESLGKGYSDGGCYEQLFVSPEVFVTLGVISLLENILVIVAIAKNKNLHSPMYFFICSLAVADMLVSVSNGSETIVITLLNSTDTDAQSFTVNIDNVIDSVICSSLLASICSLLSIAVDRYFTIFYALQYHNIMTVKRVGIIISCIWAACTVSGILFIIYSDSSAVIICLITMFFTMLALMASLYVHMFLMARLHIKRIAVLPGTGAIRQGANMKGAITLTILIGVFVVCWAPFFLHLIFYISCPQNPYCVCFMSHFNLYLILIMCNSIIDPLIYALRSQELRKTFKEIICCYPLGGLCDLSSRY
T3 sequence (P41968 whole entry): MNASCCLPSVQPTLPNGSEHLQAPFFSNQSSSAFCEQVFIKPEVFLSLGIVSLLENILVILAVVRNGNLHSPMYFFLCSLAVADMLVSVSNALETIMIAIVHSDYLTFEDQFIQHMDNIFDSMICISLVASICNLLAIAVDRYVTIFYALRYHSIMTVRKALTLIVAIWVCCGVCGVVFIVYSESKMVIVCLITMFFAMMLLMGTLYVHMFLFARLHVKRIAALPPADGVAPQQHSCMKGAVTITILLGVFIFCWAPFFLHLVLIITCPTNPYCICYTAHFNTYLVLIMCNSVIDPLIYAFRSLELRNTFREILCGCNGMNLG
Melanocortin receptor 5, sequence (P33032 whole entry): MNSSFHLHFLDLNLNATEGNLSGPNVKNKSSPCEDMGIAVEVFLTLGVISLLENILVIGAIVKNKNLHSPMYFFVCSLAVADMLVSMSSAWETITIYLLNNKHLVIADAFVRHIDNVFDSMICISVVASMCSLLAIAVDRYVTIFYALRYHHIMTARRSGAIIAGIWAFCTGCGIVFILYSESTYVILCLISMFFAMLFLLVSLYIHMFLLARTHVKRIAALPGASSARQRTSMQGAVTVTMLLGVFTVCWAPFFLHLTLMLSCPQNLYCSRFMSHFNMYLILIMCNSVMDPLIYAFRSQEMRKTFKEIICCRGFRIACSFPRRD

## Cn1nnc(CC2(C3CCCCC3)CCN(C(=O)[C@@H](Cc3ccc(Cl)cc3)NC(=O)[C@H]3Cc4ccccc4CN3)CC2)n1
Melanocortin receptor 4 [1]
  Ki: 1.2 nM (antagonist)

## NCc1ccccc1N1CCN(C(=O)[C@@H](Cc2ccc(Cl)cc2)NC(=O)[C@H]2Cc3ccccc3CN2)CC1
[2]
  inhibition: 27%
Melanocortin receptor 3 [3]
  inhibition: 34%
Melanocortin receptor 4 [4]
  EC50: 890 nM (agonist)

## CS(=O)(=O)N1CC2(CCN(C(=O)[C@@H](Cc3ccccc3)NC(=O)[C@@H](N)Cc3c[nH]cn3)CC2)c2ccccc21
Melanocortin receptor 4 [5]
  Activity: inactive

## NCCC(=O)N[C@H](Cc1ccc(Cl)cc1)C(=O)N1CCN(c2ccccc2CNCCc2cccs2)CC1
Melanocortin receptor 3 [6]
  Ki: 1400 nM (antagonist)

## NCCC(=O)N[C@H](Cc1ccc(Cl)cc1Cl)C(=O)N1CCN(c2ccccc2CNCCc2cccs2)CC1
Melanocortin receptor 4 [7]
  Kb: 12.6 nM (antagonist)
[8]
  Ki: 4200 nM (antagonist)
Melanocortin receptor 3 [6]
  Ki: 640 nM (antagonist)
Melanocortin receptor 5
  Ki: 280 nM (antagonist)
[9]
  logD: 1.1
[10]
  clearance: 24 mL/min/kg
[11]
  Vd: 9.5 L/kg
[12]
  half-life: 4.6 h
[13]
  concentration at […]: 75 ng/g
[14]
  concentration at […]: 71 ng/mL
[15]
  Kp at […]: 1
[16]
  Tmax: 0.5 h
[17]
  Cmax: 18 ng/mL
[18]
  AUC: 51 ng·h/mL
[19]
  CLint scaled: 23 mL/min/kg
[20]
  bioavailability: 1%
Melanocortin receptor 4 [21]
  Ki: 1.8 nM (antagonist)

## NCC(=O)N[C@H](Cc1ccc(Cl)cc1)C(=O)N1CCN(c2ccccc2CNCCc2cccs2)CC1
Melanocortin receptor 4 [4]
  EC50: 580 nM (agonist)
